Here are results for 33 molecules from patent US12503436B2, “Compounds and compositions for treating conditions associated with STING activity” (NOVARTIS PHARMA AG, priority 2021, dated 2025).

Molecules are shown by their SMILES.

The target in this assay is STING (Homo sapiens, UniProt Q86WV6, G230A/H232R/R293Q/R71H). Description: STING reporter assay in THP1-Dual KO-IFNAR2 cells (2′3′cGAMP stimulation, luciferase reporter). The format is cell-based. The settings on record: 15 μM 2′3′cGAMP stimulation, 24 h, read-out: Pharmaron, THP1_IFNAR2 STING 24 h Luci Normalized: GeoMean EC50. An outline of the steps: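 THP1-Dual KO-IFNAR2 cells (2×10E6 cells/mL) with compounds at 0.0017-100 μM final, stimulated with 15 μM final 2′3′cGAMP delivered by Lipofectamine 2000; 24 h at 37 °C. Luciferase in supernatant read with QUANTI-Luc Plus; EC50 derived from luminescence.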
STING, sequence (Q86WV6 whole entry R71H/G230A/H232R/R293Q): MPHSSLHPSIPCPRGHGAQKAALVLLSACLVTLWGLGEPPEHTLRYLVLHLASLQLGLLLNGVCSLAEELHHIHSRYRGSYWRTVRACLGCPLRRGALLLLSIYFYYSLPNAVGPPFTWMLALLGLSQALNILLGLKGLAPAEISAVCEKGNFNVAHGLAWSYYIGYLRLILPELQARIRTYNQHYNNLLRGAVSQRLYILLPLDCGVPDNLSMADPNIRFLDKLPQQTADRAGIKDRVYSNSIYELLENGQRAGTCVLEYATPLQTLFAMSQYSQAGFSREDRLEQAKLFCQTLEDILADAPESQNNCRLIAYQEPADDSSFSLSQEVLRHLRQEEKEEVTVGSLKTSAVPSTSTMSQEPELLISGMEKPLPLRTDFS
A general note: A reporter such as luciferase makes a cellular process visible.
By EC50 is commonly meant the midpoint of the concentration-response curve. As for `O=C(Nc1c[nH]c2ccc(OCc3ccc(C(F)(F)F)cc3)cc12)C1(F)CC1` [Compound 331, 1-fluoro-N-(5-((4-(trifluoromethyl)benzyl)oxy)-1H-indol-3-yl)cyclopropane-1-carboxamide], the EC50 lay within 1 to 5 µM.
Turning to `CC(=O)Nc1c[nH]c2ccc(O[C@H]3C[C@H](c4ccc(C(F)(F)F)cc4C)C3)cc12` [Compound 435, N-(5-(trans-3-(2-methyl-4-(trifluoromethyl)phenyl)cyclobutoxy)-1H-indol-3-yl)acetamide], the EC50 fell in the range of 0.04 to 0.2 µM.
As to `CO[C@H]1C[C@@H](C(=O)Nc2c[nH]c3ccc(O[C@H]4C[C@H](c5ccc(C(F)(F)F)cc5)C4)cc23)C1` [Compound 246, cis-3-methoxy-N-(5-(trans-3-(4-(trifluoromethyl)phenyl)cyclobutoxy)-1H-indol-3-yl)cyclobutane-1-carboxamide], the EC50 is 0.04 to 0.2 µM.
With `CC1(C(=O)Nc2c[nH]c3ccc(CCCc4ccc(C(F)(F)F)cn4)cc23)CC1` [Compound 464, 1-methyl-N-(5-(3-(5-(trifluoromethyl)pyridin-2-yl)propyl)-1H-indol-3-yl)cyclopropane-1-carboxamide], the EC50 was in the range of 0.2 to 1 µM.
`CC(=O)Nc1c[nH]c2ccc(CCNc3ccc(C(F)(F)F)cn3)cc12` [Compound 199, N-(5-(2-((5-(trifluoromethyl)pyridin-2-yl)amino)ethyl)-1H-indol-3-yl)acetamide]: the EC50 was in the range of 1 to 5 µM.
`O=C(Nc1c[nH]c2ccc(O[C@H]3C[C@@H](c4ccc(C(F)(F)F)cc4)C3)cc12)C1CC(CO)C1` (stereo partly drawn) [Compound 158, 3-(hydroxymethyl)-N-(5-(cis-3-(4-(trifluoromethyl)phenyl)cyclobutoxy)-1H-indol-3-yl)cyclobutane-1-carboxamide]: the EC50 is 0.04 to 0.2 µM.
With `O=C(Nc1c[nH]c2ccc(O[C@H]3C[C@@H](c4ccc(C(F)(F)F)cc4)C3)cc12)C1CC1(F)Cl` (stereo partly drawn) [Compound 575, 2-chloro-2-fluoro-N-(5-(cis-3-(4-(trifluoromethyl)phenyl)cyclobutoxy)-1H-indol-3-yl)cyclopropane-1-carboxamide], the EC50 lay in the range of 0.2 to 1 µM.
Regarding `CC1(C(=O)Nc2c[nH]c3ccc(O[C@H]4C[C@H](c5ccc(C(F)(F)F)cc5)C4)cc23)CNC1` [Compound 567, 3-methyl-N-(5-(trans-3-(4-(trifluoromethyl)phenyl)cyclobutoxy)-1H-indol-3-yl)azetidine-3-carboxamide], the EC50 lay in the range of 1 to 5 µM.
Take `CC1(C(=O)Nc2c[nH]c3ccc(O[C@H]4C[C@H](c5ccc(C(F)(F)F)cc5)C4)cc23)CCCO1` (stereo partly drawn) [Compound 487, 2-methyl-N-{5-[(1R,3R)-3-[4-(trifluoromethyl)phenyl]cyclobutoxy]-1H-indol-3-yl}oxolane-2-carboxamide]: the EC50 is 0.04 to 0.2 µM.
For `CC(=O)Nc1c[nH]c2ccc(OCCc3cnn(C(F)F)c3)cc12` [Compound 385, N-(5-(2-(1-(difluoromethyl)-1H-pyrazol-4-yl)ethoxy)-1H-indol-3-yl)acetamide], the EC50 was 5 to 100 µM.
`CC(=O)Nc1c[nH]c2ccc(CCOc3ccc(OC(F)(F)F)nc3)cc12` [Compound 471, N-[5-(2-{[6-(trifluoromethoxy)pyridin-3-yl]oxy}ethyl)-1H-indol-3-yl]acetamide]: the EC50 was 0.2 to 1 µM.
For the molecule `CC(=O)Nc1c[nH]c2ccc(COC[C@@H]3[C@H]4CN(CC(F)(F)F)C[C@@H]34)cc12` [Compound 274, N-(5-((((1R,5S,6r)-3-(2,2,2-trifluoroethyl)-3-azabicyclo[3.1.0]hexan-6-yl)methoxy)methyl)-1H-indol-3-yl)acetamide], the EC50 lay within 1 to 5 µM.
On to `O=C(Nc1c[nH]c2ccc(O[C@H]3C[C@H](c4ccc(C(F)(F)F)cc4)C3)cc12)C1CC1` [Compound 147, N-(5-(trans-3-(4-(trifluoromethyl)phenyl)cyclobutoxy)-1H-indol-3-yl)cyclopropanecarboxamide], for which the EC50 is 0.04 to 0.2 µM.
Turning to `C[C@]1(C(=O)Nc2c[nH]c3ccc(OCC[C@@H]4C[C@@H]5CN(CC(F)(F)F)C[C@@H]5C4)cc23)C[C@@H](CO)C1` [Compound 511, (1s,3S)-3-(hydroxymethyl)-1-methyl-N-(5-(2-((3aR,5r,6aS)-2-(2,2,2-trifluoroethyl)octahydrocyclopenta[c]pyrrol-5-yl)ethoxy)-1H-indol-3-yl)cyclobutane-1-carboxamide], the EC50 lay in the range of 0.2 to 1 µM.
Take `CC1(C)CC1C(=O)Nc1c[nH]c2ccc(O[C@H]3C[C@H](c4ccc(C(F)(F)F)cc4)C3)cc12` (stereo partly drawn) [Compound 563, 2,2-dimethyl-N-(5-(trans-3-(4-(trifluoromethyl)phenyl)cyclobutoxy)-1H-indol-3-yl)cyclopropane-1-carboxamide]: the EC50 is 0.04 to 0.2 µM.
Consider `N#CC1(C(=O)Nc2c[nH]c3ccc(CCOc4ccc(C(F)(F)F)cc4)cc23)CC1` [Compound 398, 1-cyano-N-(5-(2-(4-(trifluoromethyl)phenoxy)ethyl)-1H-indol-3-yl)cyclopropane-1-carboxamide], for which the EC50 is 0.2 to 1 µM.
`O=C(Nc1c[nH]c2ccc(CCOc3ccc(C(F)(F)F)cc3)cc12)C1CC1(F)F` (stereo not drawn) [Compound 595, 2,2-difluoro-N-(5-(2-(4-(trifluoromethyl)phenoxy)ethyl)-1H-indol-3-yl)cyclopropane-1-carboxamide]: the EC50 is 0.04 to 0.2 µM.
Turning to `CC(=O)Nc1c[nH]c2ccc(CCC3CCN(CC(F)(F)F)CC3)cc12` [Compound 114, N-(5-(2-(1-(2,2,2-trifluoroethyl)piperidin-4-yl)ethyl)-1H-indol-3-yl)acetamide], the EC50 fell in the range of 0.2 to 1 µM.
`CC(C)(C)OC(=O)N1CCC(CCOc2ccc3[nH]cc(NC(=O)C4CCC4)c3c2)CC1` [Compound 140, tert-butyl 4-(2-((3-(cyclobutanecarboxamido)-1H-indol-5-yl)oxy)ethyl)piperidine-1-carboxylate]: the EC50 fell in the range of 0.2 to 1 µM.
The result for `CC(=O)Nc1c[nH]c2ccc(CCOc3cnc4ccc(OC(F)(F)F)cc4c3)cc12` [Compound 480, N-[5-(2-{[6-(trifluoromethoxy)quinolin-3-yl]oxy}ethyl)-1H-indol-3-yl]acetamide] reads 0.2 to 1 µM; that for `COC1CC(C(=O)Nc2c[nH]c3ccc(CCOc4ccc(C(F)(F)F)cc4)cc23)C1` (stereo not drawn) [Compound 297, 3-methoxy-N-(5-(2-(4-(trifluoromethyl)phenoxy)ethyl)-1H-indol-3-yl)cyclobutane-1-carboxamide], 0.2 to 1 µM; that for `CC(=O)Nc1c[nH]c2ccc(OCc3ccc(C(F)(F)F)cc3)cc12` [Compound 247, N-(5-((4-(trifluoromethyl)benzyl)oxy)-1H-indol-3-yl)acetamide], 0.2 to 1 µM.
With `CO[C@H]1C[C@@H](C(=O)Nc2c[nH]c3ccc(CCOc4ccc(C(F)(F)F)cc4)cc23)C1` [Compound 221, cis-3-methoxy-N-(5-(2-(4-(trifluoromethyl)phenoxy)ethyl)-1H-indol-3-yl)cyclobutane-1-carboxamide], the EC50 fell in the range of 0.04 to 0.2 µM.
For `CC1(F)CC(C(=O)Nc2c[nH]c3ccc(OCCc4ccc(C(F)(F)F)cc4)cc23)C1` (stereo not drawn) [Compound 380, 3-fluoro-3-methyl-N-(5-(4-(trifluoromethyl)phenethoxy)-1H-indol-3-yl)cyclobutane-1-carboxamide], the EC50 lay in the range of 0.04 to 0.2 µM.
`CC(=O)Nc1c[nH]c2ccc(CCOc3ccc(C(F)(F)F)cc3)c(Br)c12` [Compound 546, N-(4-bromo-5-(2-(4-(trifluoromethyl)phenoxy)ethyl)-1H-indol-3-yl)acetamide]: the EC50 lay within 1 to 5 µM.
For `COCCN1CC(C)(C(=O)Nc2c[nH]c3ccc(O[C@H]4C[C@@H](c5ccc(C(F)(F)F)cc5)C4)cc23)C1` [Compound 422, 1-(2-methoxyethyl)-3-methyl-N-(5-(cis-3-(4-(trifluoromethyl)phenyl)cyclobutoxy)-1H-indol-3-yl)azetidine-3-carboxamide], the EC50 was 1 to 5 µM.
As for `CC1(C(=O)Nc2c[nH]c3ccc(CCOc4ccc(C(F)(F)F)cc4)cc23)CCOCC1` [Compound 594, 4-methyl-N-(5-(2-(4-(trifluoromethyl)phenoxy)ethyl)-1H-indol-3-yl)tetrahydro-2H-pyran-4-carboxamide], the EC50 lay within 0.2 to 1 µM.
`CO[C@H]1C[C@H](C(=O)Nc2c[nH]c3ccc(O[C@H]4C[C@@H](c5ccc(C(F)(F)F)cc5)C4)cc23)C1` [Compound 295, trans-3-methoxy-N-(5-(cis-3-(4-(trifluoromethyl)phenyl)cyclobutoxy)-1H-indol-3-yl)cyclobutane-1-carboxamide]: the EC50 lay within 0.04 to 0.2 µM.
The result for `C[C@H]1C[C@@H](C(=O)Nc2c[nH]c3ccc(OCCc4ccc(C(F)(F)F)cc4)cc23)C1` [Compound 162, cis-3-methyl-N-(5-(4-(trifluoromethyl)phenethoxy)-1H-indol-3-yl)cyclobutane-1-carboxamide] reads 0.04 to 0.2 µM; that for `CC(=O)Nc1c[nH]c2ccc(CCOc3ccc(C(F)(F)F)c(Br)c3)cc12` [Compound 543, N-(5-(2-(3-bromo-4-(trifluoromethyl)phenoxy)ethyl)-1H-indol-3-yl)acetamide], 0.2 to 1 µM.
As for `CC(=O)Nc1c[nH]c2ccc(CCSc3ccc(C(F)(F)F)cc3)cc12` [Compound 256, N-(5-(2-((4-(trifluoromethyl)phenyl)thio)ethyl)-1H-indol-3-yl)acetamide], the EC50 lay in the range of 0.2 to 1 µM.
Turning to `CC1(C(=O)Nc2c[nH]c3ccc(OCc4ccc(C(F)(F)F)cc4)cc23)CCCO1` (stereo not drawn) [Compound 325, 2-methyl-N-(5-((4-(trifluoromethyl)benzyl)oxy)-1H-indol-3-yl)tetrahydrofuran-2-carboxamide], the EC50 fell in the range of 0.2 to 1 µM.
Take `O=C(Nc1c[nH]c2ccc(CCOc3ccc(C(F)(F)F)cc3)cc12)C1CC1(F)Cl` (stereo not drawn) [Compound 175, 2-chloro-2-fluoro-N-(5-(2-(4-(trifluoromethyl)phenoxy)ethyl)-1H-indol-3-yl)cyclopropane-1-carboxamide]: the EC50 lay within 0.2 to 1 µM.
